Assay results taken from patent US8624040B2, “Substituted hydroxamic acids and uses thereof” (Millennium Pharmaceuticals, Inc., priority 2009, dated 2014).

Biological target: T1, purified human HDAC6 (Homo sapiens, UniProt Q9UBN7)
T1 construct: purchased BPS Bioscience 5006
T1 sequence (Q9UBN7 1-1215): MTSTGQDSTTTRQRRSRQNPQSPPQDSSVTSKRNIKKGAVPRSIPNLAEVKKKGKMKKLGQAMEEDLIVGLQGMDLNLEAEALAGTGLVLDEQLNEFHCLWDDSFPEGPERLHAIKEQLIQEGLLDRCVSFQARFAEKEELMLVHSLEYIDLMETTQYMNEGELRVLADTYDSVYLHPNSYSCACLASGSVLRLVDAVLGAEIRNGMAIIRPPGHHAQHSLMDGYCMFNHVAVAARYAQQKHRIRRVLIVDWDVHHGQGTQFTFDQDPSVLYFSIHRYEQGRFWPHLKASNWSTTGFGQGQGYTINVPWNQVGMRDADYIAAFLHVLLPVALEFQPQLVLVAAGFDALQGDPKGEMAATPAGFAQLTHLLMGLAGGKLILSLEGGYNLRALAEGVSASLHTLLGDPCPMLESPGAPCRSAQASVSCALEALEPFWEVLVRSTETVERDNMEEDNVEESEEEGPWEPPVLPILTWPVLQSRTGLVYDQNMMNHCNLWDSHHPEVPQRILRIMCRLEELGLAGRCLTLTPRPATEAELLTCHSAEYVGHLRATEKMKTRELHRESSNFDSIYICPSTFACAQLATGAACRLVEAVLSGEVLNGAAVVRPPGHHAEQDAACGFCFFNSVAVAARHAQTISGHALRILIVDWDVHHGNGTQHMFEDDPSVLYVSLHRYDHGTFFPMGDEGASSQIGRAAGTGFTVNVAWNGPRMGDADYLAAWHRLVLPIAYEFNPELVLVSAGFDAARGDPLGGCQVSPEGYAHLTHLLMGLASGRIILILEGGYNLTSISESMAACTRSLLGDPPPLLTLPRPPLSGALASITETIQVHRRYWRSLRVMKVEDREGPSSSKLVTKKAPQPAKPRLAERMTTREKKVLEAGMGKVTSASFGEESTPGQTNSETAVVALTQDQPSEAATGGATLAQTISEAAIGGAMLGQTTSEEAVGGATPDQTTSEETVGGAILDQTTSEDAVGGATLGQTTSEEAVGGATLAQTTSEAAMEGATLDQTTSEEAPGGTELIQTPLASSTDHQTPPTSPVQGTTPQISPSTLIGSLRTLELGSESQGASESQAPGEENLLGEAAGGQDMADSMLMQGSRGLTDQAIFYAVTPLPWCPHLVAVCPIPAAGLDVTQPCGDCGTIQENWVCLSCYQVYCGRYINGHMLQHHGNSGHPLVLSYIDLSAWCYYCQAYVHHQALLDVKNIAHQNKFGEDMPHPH
Experiment: HDAC6 Enzyme Assay
Assay type: biochemical
Settings: enzyme inhibition, substrate Ac-Arg-Gly-Lys(Ac)-AMC, 1 hour at 30° C.
Method: To measure the inhibition of HDAC6 activity, purified human HDAC6 (BPS Bioscience; Cat. No. 5006) is incubated with substrate Ac-Arg-Gly-Lys(Ac)-AMC peptide (Bachem Biosciences; Cat. No. I-1925) for 1 hour at 30° C. in the presence of test compounds or vehicle DMSO control. The reaction is stopped with the HDAC inhibitor trichostatin A (Sigma; Cat. No. T8552) and the amount of Arg-Gly-Lys-AMC generated is quantitated by digestion with trypsin (Sigma; Cat. No. T1426) and subsequent measurement of the amount of AMC released using a fluorescent plate reader (Pherastar; BMG Technologies) set at Ex 340 nm and Em 460 nm. Concentration response curves are generated by calculating the fluorescence increase in test compound-treated samples relative to DMSO-treated controls, and enzyme inhibition (IC50) values are determined from those curves.

Row | SMILES | IC50
1 | CC1(C)CN(C(=O)c2ccc(Cl)cc2)Cc2cc(C(=O)NO)sc21 [Compound 218, 5-(4-chlorobenzoyl)-N-hydroxy-7,7-dimethyl-4,5,6,7-tetrahydrothieno[3,2-c]pyridine-2-carboxamide] | > 1000 nM
2 | Cc1nc(C)c(CC(=O)N2CCc3cc(C(=O)NO)sc3C2)s1 [Compound 47, 6-[(2,4-dimethyl-1,3-thiazol-5-yl)acetyl]-N-hydroxy-4,5,6,7-tetrahydrothieno[2,3-c]pyridine-2-carboxamide] | 50 to 100 nM
3 | Cc1oc(-c2ccccc2)nc1CC(=O)N1CCc2cc(C(=O)NO)sc2C1 [Compound 65, N-hydroxy-6-[(5-methyl-2-phenyl-1,3-oxazol-4-yl)acetyl]-4,5,6,7-tetrahydrothieno[2,3-c]pyridine-2-carboxamide] | < 50 nM
4 | CCCCS(=O)(=O)N1CCc2cc(C(=O)NO)sc2C1 [Compound 19, 6-(butylsulfonyl)-N-hydroxy-4,5,6,7-tetrahydrothieno[2,3-c]pyridine-2-carboxamide] | < 50 nM
5 | COc1ccc(C(=O)N2Cc3cc(C(=O)NO)sc3C(C)(C)C2)cc1 [Compound 214, N-hydroxy-5-(4-methoxybenzoyl)-7,7-dimethyl-4,5,6,7-tetrahydrothieno[3,2-c]pyridine-2-carboxamide] | > 1000 nM
6 | O=C(NO)c1cc2c(s1)CN(C(=O)C1CCCCC1)CC2 [Compound 2, 6-(cyclohexylcarbonyl)-N-hydroxy-4,5,6,7-tetrahydrothieno[2,3-c]pyridine-2-carboxamide] | < 50 nM
7 | O=C(NO)c1cc2c(s1)CN(C(=O)C13CC4CC(CC(C4)C1)C3)C2 [Compound 230, 5-(1-adamantylcarbonyl)-N-hydroxy-5,6-dihydro-4H-thieno[2,3-c]pyrrole-2-carboxamide] | 50 to 100 nM
8 | O=C(NO)c1cc2c(s1)CN(C(=O)C1(c3ccc(F)cc3Cl)CCCC1)CC2 [Compound 13, 6-{[1-(2-chloro-4-fluorophenyl)cyclopentyl]carbonyl}-N-hydroxy-4,5,6,7-tetrahydrothieno[2,3-c]pyridine-2-carboxamide] | < 50 nM
9 | NC(=O)CSc1ccsc1C(=O)N1CCc2cc(C(=O)NO)sc2C1 [Compound 56, 6-({3-[(2-amino-2-oxoethyl)sulfanyl]-2-thienyl}carlbonyl)-N-hydroxy-4,5,6,7-tetrahydrothieno[2,3-c]pyridine-2-carboxamide] | > 1000 nM
10 | Cc1noc(C)c1C(=O)N1CCc2cc(C(=O)NO)sc2C1 [Compound 177, 6-[(3,5-dimethylisoxazol-4-yl)carbonyl]-N-hydroxy-4,5,6,7-tetrahydrothieno[2,3-c]pyridine-2-carboxamide] | < 50 nM
11 | Cc1nc(CC(=O)N2CCc3cc(C(=O)NO)sc3C2)cs1 [Compound 75, N-hydroxy-6-(2-(2-methylthiazol-4-yl)acetyl)-4,5,6,7-tetrahydrothieno[2,3-c]pyridine-2-carboxamide] | 50 to 100 nM
12 | Cc1c(C(=O)NO)sc2c1CN(C(=O)c1ccc(Cl)cc1)CC2 [Compound 193, 5-(4-chlorobenzoyl)-N-hydroxy-3-methyl-4,5,6,7-tetrahydrothieno[3,2-c]pyridine-2-carboxamide] | < 50 nM
13 | Cc1ccc(CNC(=O)N2CCc3cc(C(=O)NO)sc3C2)cc1 [Compound 103, N2-hydroxy-N-6-(4-methylbenzyl)-4,5-dihydrothieno[2,3-c]pyridine-2,6(5H)-dicarboxamide] | < 50 nM
14 | Cc1cc(C)c(NC(=O)N2CCc3cc(C(=O)NO)sc3C2)c(C)c1 [Compound 176, N^2-hydroxy-N^6-mesityl-4,7-dihydrothieno[2,3-c]pyridine-2,6(5H)-dicarboxamide] | < 50 nM
15 | Cn1cccc1C(=O)N1Cc2cc(C(=O)NO)sc2C(C)(C)C1 [Compound 210, N-hydroxy-7,7-dimethyl-5-[(1-methyl-1H-pyrrol-2-yl)carbonyl]-4,5,6,7-tetrahydrothieno[3,2-c]pyridine-2-carboxamide] | > 1000 nM
16 | CC(C)(C)c1ccc(C(=O)N2Cc3cc(C(=O)NO)sc3C(C)(C)C2)cc1 [Compound 190, 5-(4-tert-butylbenzoyl)-N-hydroxy-7,7-dimethyl-4,5,6,7-tetrahydrothieno[3,2-c]pyridine-2-carboxamide] | > 1000 nM
17 | Cc1nc(-c2ccccn2)sc1C(=O)N1CCc2sc(C(=O)NO)c(C)c2C1 [Compound 199, N-hydroxy-3-methyl-5-[(4-methyl-2-pyridin-2-yl-1,3-thiazol-5-yl)carbonyl]-4,5,6,7-tetrahydrothieno[3,2-c]pyridine-2-carboxamide] | 50 to 100 nM
18 | Cc1cc(C(=O)N2CCc3cc(C(=O)NO)sc3C2)ccc1F [Compound 51, 6-(4-fluoro-3-methylbenzoyl)-N-hydroxy-4,5,6,7-tetrahydrothieno[2,3-c]pyridine-2-carboxamide] | < 50 nM
19 | Cc1cnc(C(=O)N2CCc3sc(C(=O)NO)cc3C2)cn1 [Compound 29, N-hydroxy-5-(5-methylpyrazine-2-carbonyl)-4,5,6,7-tetrahydrothieno[3,2-c]pyridine-2-carboxamide] | 50 to 100 nM
20 | O=C(NO)c1cc2c(s1)CN(C(=O)c1ccco1)CC2 [Compound 42, 6-(furan-2-carbonyl)-N-hydroxy-4,5,6,7-tetrahydrothieno[2,3-c]pyridine-2-carboxamide] | < 50 nM

Second part, the compound after the results:

Row | IC50 | SMILES
21 | < 50 nM | Cc1c(C(=O)N2CCc3cc(C(=O)NO)sc3C2)cnn1-c1ccccc1 [Compound 187, N-hydroxy-6-[(5-methyl-1-phenyl-1H-pyrazol-4-yl)carbonyl]-4,5,6,7-tetrahydrothieno[2,3-c]pyridine-2-carboxamide]
22 | < 50 nM | O=C(NO)c1cc2c(s1)CN(C(=O)c1cccc(-n3cccn3)c1)CC2 [Compound 133, 6-(3-(1H-pyrazol-1-yl)benzoyl)-N-hydroxy-4,5,6,7-tetrahydrothieno[2,3-c]pyridine-2-carboxamide]
23 | < 50 nM | CC(C)(C)C(=O)N1CCc2sc(C(=O)NO)cc2C1 [Compound 26, 5-(2,2-dimethylpropanoyl)-N-hydroxy-4,5,6,7-tetrahydrothieno[3,2-c]pyridine-2-carboxamide]
24 | < 50 nM | COc1ccc(C(=O)N2CCc3sc(C(=O)NO)c(C)c3C2)cc1 [Compound 209, N-hydroxy-5-(4-methoxybenzoyl)-3-methyl-4,5,6,7-tetrahydrothieno[3,2-c]pyridine-2-carboxamide]
25 | < 50 nM | Cc1c(C(=O)NO)sc2c1CN(C(=O)c1cc3ccccc3s1)CC2 [Compound 205, 5-(1-benzothien-2-ylcarbonyl)-N-hydroxy-3-methyl-4,5,6,7-tetrahydrothieno[3,2-c]pyridine-2-carboxamide]
26 | < 50 nM | O=C(NO)c1cc2c(s1)CN(C(=O)c1c(F)c(F)cc(F)c1F)CC2 [Compound 156, N-hydroxy-6-(2,3,5,6-tetrafluorobenzoyl)-4,5,6,7-tetrahydrothieno[2,3-c]pyridine-2-carboxamide]
27 | < 50 nM | O=C(NO)c1cc2c(s1)CCN(C(=O)C1CCCCC1)C2 [Compound 31, 5-(cyclohexanecarbonyl)-N-hydroxy-4,5,6,7-tetrahydrothieno[3,2-c]pyridine-2-carboxamide]
28 | < 50 nM | Cn1cccc1C(=O)N1CCc2sc(C(=O)NO)cc2C1 [Compound 27, N-hydroxy-5-[(1-methyl-1H-pyrrol-2-yl)carbonyl]-4,5,6,7-tetrahydrothieno[3,2-c]pyridine-2-carboxamide]
29 | < 50 nM | O=C(NO)c1cc2c(s1)CN(S(=O)(=O)c1ccc(C(F)(F)F)cc1)CC2 [Compound 21, N-hydroxy-6-{[4-(trifluoromethyl)phenyl]sulfonyl}-4,5,6,7-tetrahydrothieno[2,3-c]pyridine-2-carboxamide]
30 | < 50 nM | O=C(NO)c1cc2c(s1)CN(C(=O)Nc1ccc(I)cc1)CC2 [Compound 163, N^2-hydroxy-N^6-(4-iodophenyl)-4,7-dihydrothieno[2,3-c]pyridine-2,6(5H)-dicarboxamide]
